From publication PMC6680850, “Anion Inhibition Profile of the β-Carbonic Anhydrase from the Opportunist Pathogenic Fungus Malassezia restricta Involved in Dandruff and Seborrheic Dermatitis” (Metabolites, 2019)
Where a name gives a salt, the structure may show the parent alone. Read-outs that look alike come from different tables or passages of the source.

How the values were obtained:
[1] = target: β-CA from Malassezia restricta (MreCA) (Malassezia restricta, UniProt A0A3G2S4B9); assay: biochemical; format: biochemical
[2] = target: β-CA from Malassezia globosa (MgCA); set-up: method as in PMID 29152053; conditions: cited from earlier work
hCA I = conditions: cited from earlier work
hCA II = conditions: cited from earlier work; for Ki: pH 8.3
[3] = CO2 hydration reaction, 20 °C, pH 8.3, stopped flow, ref [31]

β-CA from Malassezia restricta (MreCA), sequence (A0A3G2S4B9 1-238): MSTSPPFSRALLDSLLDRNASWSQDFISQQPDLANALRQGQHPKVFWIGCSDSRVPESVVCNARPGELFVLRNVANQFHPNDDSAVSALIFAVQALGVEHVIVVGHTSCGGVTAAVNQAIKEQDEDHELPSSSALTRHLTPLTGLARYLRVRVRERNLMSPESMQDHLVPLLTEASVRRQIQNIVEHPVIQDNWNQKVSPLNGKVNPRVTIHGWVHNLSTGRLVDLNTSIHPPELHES

| Molecule | Ki ([1]; pH 8.3, read-out: KI MreCA) | Ki ([2]; pH 8.3) | Ki [2, 3] | further results |
| --- | --- | --- | --- | --- |
| OB1OB2OB(O)OB(O1)O2 [B4O7^2−, tetraborate] | 0.4 mM | 8.45 mM |  |  |
| [Br-].[K+] [Br^−, bromide] | > 50 mM | 18.6 mM |  | Ki (hCA I; pH 8.3): 4 mM; Ki (hCA II): 63 mM |
| O=S(=O)(O)C(F)(F)F [CF3SO3^−, trifalate] | 4.5 mM |  | 2.28 mM |  |
| N#CO [CNO^−, cyanate] | > 50 mM | 6.81 mM |  |  |
| O=C(O)O [CO3^2, carbonate] | > 50 mM | > 100 mM |  |  |
| S=C(S)S [CS3^2−, trithiocarbonate] | 0.92 mM |  | 1.77 mM | Ki (hCA I; [3]): 0.0087 mM |
| [O-][Cl+3]([O-])([O-])O [ClO4^−, perchlorate] | 9.2 mM | > 100 mM |  |  |
| Cl [Cl^−, chloride] | > 50 mM | 7.98 mM |  | Ki (hCA I; pH 8.3): 6 mM |
| CCN(CC)C(=S)S [Et2NCS2^−, diethyldithiocarbamate] |  |  | 0.3 mM | Ki [1]: 0.075 mM; Ki (hCA I; [3]): 0.00079 mM |
| F [F^−, fluoride] | > 50 mM | 7.13 mM |  |  |
| O=C(O)O [HCO3^−, bicarbonate] | 0.86 mM | 0.59 mM |  |  |
| O=S(O)O [HSO3^−, bisulfite] | > 50 mM |  | > 100 mM | Ki (hCA I; [3]): 18 mM |
| I [I^−, iodide] | 8.6 mM |  | 8.73 mM | Ki (hCA I; [3]): 0.3 mM |
| NS(N)(=O)=O [Inhibitor H2NSO2NH2, sulfamide] | 0.72 mM |  | 0.094 mM |  |
| [N-]=[N+]=[N-] [N3^−, azide] | > 50 mM | 45.2 mM |  | inhibition of hCA II in words (hCA II): well inhibited |
| NS(=O)(=O)O [NH2SO3H, sulfamic acid] | 7.7 mM |  | 0.083 mM | Ki (hCA I; [3]): 0.021 mM |
| O=S(=O)(O)NS(=O)(=O)O [NH(SO3)2^2−, iminodisulfite] | > 50 mM |  | 21.4 mM | Ki (hCA I; [3]): 0.31 mM |

| Molecule | Ki ([1]; pH 8.3, read-out: KI MreCA) | Ki ([2]; pH 8.3) | Ki [2, 3] | further results |
| --- | --- | --- | --- | --- |
| O=NO [NO2^−, nitrite] | > 50 mM | 7.56 mM |  |  |
| O=[N+]([O-])O [NO3^−, nitrate] | 9 mM |  | 8.13 mM | Ki (hCA I; [3]): 7 mM |
| O=P(O)(O)OP(=O)(O)O [P2O7^2−, pyrophosphate] | > 50 mM |  | 6.03 mM | Ki (hCA I; [3]): 25.8 mM |
| F[P-](F)(F)(F)(F)F [PF6^−, esafluorofosfato] | 3.9 mM |  | 6.47 mM |  |
| O=[As](O)(O)c1ccccc1 [PhAsO3H2, phenylarsonic acid] |  | 0.09 mM |  | Ki (hCA I; pH 8.3): 31.7 mM; Ki (hCA II): 49.2 mM |
| OB(O)c1ccccc1 [PhB(OH)2, phenylboronic acid] |  | 0.089 mM |  | Ki [1]: 8.7 mM; inhibition of hCA I in words (hCA I): not well inhibited; Ki (hCA I; pH 8.3): 58.6 mM |
| [O]=[Re](=[O])(=[O])[OH] [ReO4^−, perrhenate] | > 50 mM |  | 16.7 mM |  |
| [O]=[Ru](=[O])(=[O])=[O] [RuO4^−, perruthenate] | 7.4 mM |  | 8.82 mM |  |
| O=S(=O)(O)OOS(=O)(=O)O [S2O8^2−, peroxydisulfate] | > 50 mM |  | > 100 mM |  |
| N#CS [SCN^−, thiocyanate] | > 50 mM | 8.39 mM |  |  |
| O=S(=O)(O)O [SO4^2−, sulfate] |  | 19.5 mM |  |  |
| N#C[SeH] [SeCN^−, selenocyanate] | 0.65 mM | 1.73 mM |  | Ki (hCA I; pH 8.3): 0.085 mM |
| O=[Se](=O)(O)O [SeO4^2−] | 1.7 mM | 7.41 mM |  |  |
| [O]=[Sn]([OH])[OH] [SnO3^2−, stannate] | 0.56 mM | 5.07 mM |  |  |
| O=[Te](=O)(O)O [TeO4^2−, tellurate] | 0.56 mM | 5.75 mM |  | Ki (hCA I; pH 8.3): 0.66 mM |
| [O]=[V]([OH])([OH])[O][V](=[O])([OH])[OH] [V2O7^2−, divanadate] | > 50 mM |  | 6.89 mM | Ki (hCA I; [3]): 0.54 mM |
| osmate [OsO5^2−] | 8.5 mM | 6.16 mM |  |  |
